What all share (type): in vivo
For data set [1], the system named is electroshock-induced tonic (hindlimb extension) seizures. Description: Maximal electroshock seizure threshold test (MES-T). The following applies: mice; carbamazepine 7 mg/kg i.p. alone, 30 min before. How it is done: The stimulus train was applied via ear-clip electrodes (sinusoidal pulses 4-14 mA, 50 Hz, 0.2 s duration) by means of a constant current stimulator (rodent-shocker type 221; Hugo Sachs Elektronik, March-Hugstetten, Germany). […] Groups of 20 mice were used. Control groups, which received the corresponding vehicle, were tested together with the compound-treated groups on the same experimental day. Current intensity-effect curves were obtained on the basis of the number of animals responding with the endpoint at the corresponding current value. The results are calculated as convulsive current fifty (CC50) values (current intensity in mA, necessary to produce tonic hindlimb extension in 50% of the mice tested) including the confidence limits for 95% probability. […] Chemicals, Toronto, Canada) was slowly added. The pH was adjusted with 1N NaOH (similar amount of NaOH as HCl), all with continuous stirring. […] The drug solutions or suspensions were prepared immediately before use; all doses refer to the salts. Animals in the control group received equivalent volumes of the vehicle (in mice always 10 ml/kg, in rats 1 ml/kg [JNJ], 3 ml/kg [AFC] or 4 ml/kg [BBG, TIIAS], depending on the solubility of the different compounds). Doses and peak time effects were selected on the basis of effective doses from corresponding in vivo studies in the literature: BBG (e.g.), tanshinone IIA (e.g.) and from manufacturer's experimental data: AFC, JNJ (see, [80]). Data were analysed using SigmaPlot (vers. 12.0, Systat Software, Erkrath, Germany) and SPSS (IBM SPSS Statistics 20, […], Germany), respectively. Results are expressed as mean ± SEM. […] In the PTZ-T, the number of animals in the group with clonic seizures and the latency time were analysed using Fisher's exact probability test and the Mann-Whitney rank sum test, respectively. […] In the PTZ-kindling model, the mean seizure stage within a group was calculated in relation to the number of PTZ-injections. […] In fully kindled rats, the calculated mean seizure stage within a group after vehicle- and compound-treatment were compared using a paired t-test. […]
In general terms: The maximal electroshock test induces tonic seizures with an electrical stimulus.

The subject of data set [2] is PTZ-induced seizures in fully PTZ-kindled rats. Description: PTZ-induced seizures in fully kindled rats. The following applies: fully kindled rats; 20 mg/kg i.p.; pre-drug (vehicle) value 4.1. An excerpt: Results were expressed as mean seizure stages of a tested group in which the seizure behaviour after vehicle treatment (vehicle seizure stage) and after compound treatment (compound seizure stage), examined 3-4 days later, was matched. For comparison, the effectiveness of two antiepileptic drugs (carbamazepine and valproate) was also investigated. […] Chemicals, Toronto, Canada) was slowly added. The pH was adjusted with 1N NaOH (similar amount of NaOH as HCl), all with continuous stirring. […] The drug solutions or suspensions were prepared immediately before use; all doses refer to the salts. Animals in the control group received equivalent volumes of the vehicle (in mice always 10 ml/kg, in rats 1 ml/kg [JNJ], 3 ml/kg [AFC] or 4 ml/kg [BBG, TIIAS], depending on the solubility of the different compounds). Doses and peak time effects were selected on the basis of effective doses from corresponding in vivo studies in the literature: BBG (e.g.), tanshinone IIA (e.g.) and from manufacturer's experimental data: AFC, JNJ (see, [80]). Data were analysed using SigmaPlot (vers. 12.0, Systat Software, Erkrath, Germany) and SPSS (IBM SPSS Statistics 20, […], Germany), respectively. Results are expressed as mean ± SEM. […] In the MES-T, the current intensity inducing tonic hindlimb extensions in 50% of the mice (CC50 values with confidence limits for 95% probability) and the statistical significance was calculated using Probit analysis (SPSS). […] In the PTZ-T, the number of animals in the group with clonic seizures and the latency time were analysed using Fisher's exact probability test and the Mann-Whitney rank sum test, respectively. For multiple comparisons of the latency time a one-way ANOVA with the Holm-Sidak post hoc test was used. The influence of AFC on the plasma and brain concentrations of the antiepileptic drugs was statistical compared using the same procedure. In the PTZ-kindling model, the mean seizure stage within a group was calculated in relation to the number of PTZ-injections. Statistical comparison between vehicle- and compound-treated groups in this model was performed with two-way repeated measures ANOVA, followed by the Holm-Sidak post hoc test. The mean number of PTZ-injections needed to produce the first generalized seizure (≥ stage 3 convulsions) in the vehicle- versus compound-treated groups was statistically compared using a Mann-Whitney rank sum test. In fully kindled rats, the calculated mean seizure stage within a group after vehicle- and compound-treatment were compared using a paired t-test. P < 0.05 was the accepted minimum level of significance.

The nature of data set [3]: Plasma and brain concentration in mice (co-administration with AEDs). The following applies: MES-T; for concentration at 30 min: mouse, brain, intraperitoneal, CBZ 7 mg/kg i.p. On the procedure: Blood was collected intracardially by heart […] pipettes supplemented with heparin-Na (ratiopharm, Ulm, Germany; 10μl of 5.000 I.U./ml) and separated by centrifuging (1500xg for 10 min) at 6-8°C. The plasma was stored at -20°C in plastic tubes. After blood sample collection, rats were decapitated and brains were quickly dissected. After removing the adherent blood by tissue paper and cutting off the cerebellum, the samples were fresh frozen using liquid nitrogen. Brain tissue was stored at -80°C and delivered to the different laboratories on dry ice. For mice (groups with n = 6), a similar procedure was used for the preparation of plasma and brain samples. In experiments in which AFC was co-administered with carbamazepine or ethosuximide, drug concentrations in plasma and brain were estimated to detect potential pharmacokinetic interactions. Samples from experiments with AFC were analysed at the Lead Discovery Center (Dortmund, Germany). Briefly, AFC, carbamazepine and ethosuximide were extracted from plasma and homogenized brain by protein precipitation using acetonitrile. Resulting filtrates were analysed by liquid chromatography tandem-mass spectrometry (LC-MS/MS) using a Prominence UFLC system (Shimadzu, Duisburg, Germany) coupled to a QTrap 5500 instrument (ABSciex, Darmstadt, Germany). The compounds were separated on a Zorbax Eclipse Plus C18 column (Agilent Technologies, Santa Clara, CA, USA) with an acetonitrile/water gradient containing 0.1% formic acid as solvent. Chromatographic conditions and mass spectrometer parameters were optimized for each analyte. Plasma and brain concentrations of the compounds were calculated by means of a standard curve. Data were analysed using SigmaPlot (vers. 12.0, Systat Software, Erkrath, Germany) and SPSS (IBM SPSS Statistics 20, […], Germany), respectively. Results are expressed as mean ± SEM. […] In the MES-T, the current intensity inducing tonic hindlimb extensions in 50% of the mice (CC50 values with confidence limits for 95% probability) and the statistical significance was calculated using Probit analysis (SPSS). […] In the PTZ-T, the number of animals in the group with clonic seizures and the latency time were analysed using Fisher's exact probability test and the Mann-Whitney rank sum test, respectively. For multiple comparisons of the latency time a one-way ANOVA with the Holm-Sidak post hoc test was used. The influence of AFC on the plasma and brain concentrations of the antiepileptic drugs was statistical compared using the same procedure. In the PTZ-kindling model, the mean seizure stage within a group was calculated in relation to the number of PTZ-injections. Statistical comparison between vehicle- and compound-treated groups in this model was performed with two-way repeated measures ANOVA, followed by the Holm-Sidak post hoc test. The mean number of PTZ-injections needed to produce the first generalized seizure (≥ stage 3 convulsions) in the vehicle- versus compound-treated groups was statistically compared using a Mann-Whitney rank sum test. In fully kindled rats, the calculated mean seizure stage within a group after vehicle- and compound-treatment were compared using a paired t-test. P < 0.05 was the accepted minimum level of significance.

Results on one molecule are retold here after PMC4900628, “Critical Evaluation of P2X7 Receptor Antagonists in Selected Seizure Models” (PLoS ONE, 2016).

Like-named read-outs stand apart in the source and are kept apart here.

As to `NC(=O)N1c2ccccc2C=Cc2ccccc21` [carbamazepine], the “increase of the electroconvulsive threshold” value in data set [1] is “about 50%”. Moreover, in data set [2], the “mean seizure stage, post-drug” value turned out to be 2.3. Besides, the “plasma concentrations of CBZ on co-application of AFC” value in data set [3] (AFC 25 or 50 mg/kg s.c.) is recorded as “not significantly modulated”. Besides, the concentration at 30 min stood at 22.8 ± 1.5 µM in data set [3] (7 mg/kg, n = 6, read-out: brain concentration of CBZ alone); 16.2 ± 0.6 µM in data set [3] (n = 6, significantly lowered, read-out: brain concentration of CBZ with AFC 25 mg/kg s.c.); 17.2 ± 1.7 µM in data set [3] (n = 6, significantly lowered, read-out: brain concentration of CBZ with AFC 50 mg/kg s.c.).
